These results are taken from patent US5196513A, “Synthetic peptides derived from the beta-subunit of human thyroid stimulating hormone” (Mayo Foundation for Medical Education and Research, priority 1991, dated 1993).

Structures are written as SMILES. Residues, ends and D or L forms follow the SMILES beside them.

The target of experiment [1] is T1, porcine TSH receptor (porcine thyroid membranes) (Sus scrofa, UniProt Q8SPP9).
T1 construct: Frozen porcine thyroid glands were purchased; tissue Pel-Freez Biologicals; host or cells: porcine thyroid glands, crude membrane preparation
T1 sequence (Q8SPP9 22-764): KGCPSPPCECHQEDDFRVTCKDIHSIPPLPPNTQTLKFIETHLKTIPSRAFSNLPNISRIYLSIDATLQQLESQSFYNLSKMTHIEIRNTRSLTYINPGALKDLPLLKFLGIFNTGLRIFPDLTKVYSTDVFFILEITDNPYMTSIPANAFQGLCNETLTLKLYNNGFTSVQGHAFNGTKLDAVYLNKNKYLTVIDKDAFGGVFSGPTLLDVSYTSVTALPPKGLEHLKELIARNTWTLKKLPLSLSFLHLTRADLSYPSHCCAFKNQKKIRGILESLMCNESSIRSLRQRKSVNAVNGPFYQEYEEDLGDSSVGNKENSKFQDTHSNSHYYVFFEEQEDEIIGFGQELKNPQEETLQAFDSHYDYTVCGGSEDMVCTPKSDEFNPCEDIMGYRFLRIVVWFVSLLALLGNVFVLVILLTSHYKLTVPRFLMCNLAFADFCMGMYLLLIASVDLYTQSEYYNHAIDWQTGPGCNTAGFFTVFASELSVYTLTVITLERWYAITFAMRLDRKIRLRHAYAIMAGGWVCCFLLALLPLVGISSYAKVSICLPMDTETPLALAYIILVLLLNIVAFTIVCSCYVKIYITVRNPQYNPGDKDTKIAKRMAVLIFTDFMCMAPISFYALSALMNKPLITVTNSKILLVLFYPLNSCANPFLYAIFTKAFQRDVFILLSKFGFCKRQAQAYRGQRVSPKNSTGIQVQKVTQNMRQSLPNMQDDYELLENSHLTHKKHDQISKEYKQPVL
Put plainly: Porcine thyroid membrane TSH radio-receptor assay (inhibition of 125I-bTSH binding). The settings on record: concentration inhibiting 125I-bTSH binding to porcine thyroid membrane by 50%; mean ± se of at least 3 assays. The text has this: Frozen porcine thyroid glands were purchased (Pel-Freez Biologicals, Rogers, Ak.) and prepared using the same procedures as for the human glands.
(§1) Highly purified bTSH (30 U/mg, supplied by Dr. J. G. Pierce, formerly of UCLA) was radio-iodinated (Na^125 I, Amersham, Chicago) by a lactoperoxidase technique to a specific activity averaging 40-50 μCi/μg as previously described, Takahashi et al., supra, then purified by Sephadex G-100 chromatography.
(§2) The TSH radio-receptor assay (RRA) utilized for the studies has been well described previously; see Takahashi et al., supra and Morris et al., Endocrinology, 123:456-462 (1988), the disclosure of which is incorporated by reference herein. Briefly, for either human or porcine thyroid RRA, the incubation mixture consisted of the following: 10 mg equivalents of wet weight (mg eq) crude thyroid membrane preparation, 0.124 ng [^125 I]iodo-bTSH (approximately 20,000 cpm), 0.2% Triton X-100, and the noted amounts of synthetic peptides or unlabeled bTSH in 0.5 ml 40 mM Tris, 0.1% BSA, pH 7.4. Bound label was separated from free after 2 hrs incubation at 25° C. by addition of a 1 ml 30% polyethylene glycol (PEG, Baker, Phillipsburg, N.J.) 6000 in 1M NaCl and centrifugation. The resulting pellet was counted in a gamma counter. Non-specific binding was determined by addition of a 100 mU/ml crude bTSH (Sigma, St. Louis).

Experiment [2] deals with T2, TSH receptor on human thyroid membranes (Homo sapiens, UniProt P16473).
T2 construct: Crude membrane preparations were prepared from the frozen tissue; from tissue; host or cells: human thyroid tissue (Graves' disease patients), crude 2000 x g membrane fraction
T2 sequence (P16473 21-764): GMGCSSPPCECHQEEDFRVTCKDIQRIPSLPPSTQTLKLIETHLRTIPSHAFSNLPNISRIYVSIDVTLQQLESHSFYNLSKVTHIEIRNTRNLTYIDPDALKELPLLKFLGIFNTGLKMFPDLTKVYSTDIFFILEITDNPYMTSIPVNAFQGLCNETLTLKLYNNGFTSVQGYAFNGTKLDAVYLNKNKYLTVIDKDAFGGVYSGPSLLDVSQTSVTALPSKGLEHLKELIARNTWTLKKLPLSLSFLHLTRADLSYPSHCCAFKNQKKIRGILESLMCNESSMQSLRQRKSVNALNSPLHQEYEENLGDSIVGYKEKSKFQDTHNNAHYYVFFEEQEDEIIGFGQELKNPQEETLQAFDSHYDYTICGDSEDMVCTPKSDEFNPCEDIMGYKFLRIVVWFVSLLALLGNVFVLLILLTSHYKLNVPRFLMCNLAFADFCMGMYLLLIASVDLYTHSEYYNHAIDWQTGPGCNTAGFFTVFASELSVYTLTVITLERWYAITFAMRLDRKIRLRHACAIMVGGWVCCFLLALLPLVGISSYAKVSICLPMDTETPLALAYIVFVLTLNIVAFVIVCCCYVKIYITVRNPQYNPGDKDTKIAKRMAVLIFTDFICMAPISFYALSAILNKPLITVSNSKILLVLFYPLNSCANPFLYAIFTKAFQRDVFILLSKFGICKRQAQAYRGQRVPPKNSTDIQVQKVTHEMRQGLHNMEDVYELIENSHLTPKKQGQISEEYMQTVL
Put plainly: Human thyroid membrane TSH radio-receptor assay (inhibition of 125I-bTSH binding). Particulars: for EC50: concentration inhibiting 125I-bTSH binding to human thyroid membrane by 50%, mean ± se of at least 3 assays; for Inhibition of TSH binding to human thyroid membrane (in words): human thyroid membrane RRA. The method, then: Thyroid tissue from patients with Graves' disease was obtained at surgery and promptly frozen and maintained at -70° C. Crude membrane preparations were prepared from the frozen tissue as previously described, Takahashi et al., J. Clin. Endocrinol. Metab., 47:870-876 (1978), the disclosure of which is incorporated by reference herein. Briefly, the tissue was homogenized with a Polytron homogenizer (Brinkmann Instruments,Westbury, N.Y.), and the 2000×g fraction was collected by centrifugation, washed, and resuspended in 40 mM Tris, 200 mM sucrose, pH 7.4. Membrane preparations were maintained at -70° C. until assay.
as §1, §2

The next experiment deals with FRTL5 cells (Rattus norvegicus, UniProt P21463). Kind of experiment: TSab bioassay, inhibition of TSab-stimulated cAMP generation in FRTL5 cells. It counts as cell-based. Particulars: for Serum samples in which TSab-stimulated cAMP was significantly inhibited (p<0.05) / samples tested: peptide 150 μg/ml; for Inhibition of TSab-stimulated cAMP generation (in words): peptide 50 and 150 μg/ml. As for the experimental part: FRTL5 cells were cultured in Hams F-12 medium supplemented with 5% calf serum and a preparation containing 6 hormones (6H), including 10 mU/ml bTSH (Sigma, St. Louis, Mo.), as previously described. Ambesi-Impiombato et al., Proc. Natl. Acad. Sci. U.S.A., 77:3455 (1980), the disclosure of which is incorporated by reference herein. The cells were enzymatically removed from flasks and plated in 24 well plates containing 6H at a density of 150,000 cells per well. After 4 days, the cells were washed and the media replaced with media containing insulin only (1H). All subsequent assays were performed on cells deprived of TSH for 5-7 days.
FRTL5 cells, sequence (P21463 22-764): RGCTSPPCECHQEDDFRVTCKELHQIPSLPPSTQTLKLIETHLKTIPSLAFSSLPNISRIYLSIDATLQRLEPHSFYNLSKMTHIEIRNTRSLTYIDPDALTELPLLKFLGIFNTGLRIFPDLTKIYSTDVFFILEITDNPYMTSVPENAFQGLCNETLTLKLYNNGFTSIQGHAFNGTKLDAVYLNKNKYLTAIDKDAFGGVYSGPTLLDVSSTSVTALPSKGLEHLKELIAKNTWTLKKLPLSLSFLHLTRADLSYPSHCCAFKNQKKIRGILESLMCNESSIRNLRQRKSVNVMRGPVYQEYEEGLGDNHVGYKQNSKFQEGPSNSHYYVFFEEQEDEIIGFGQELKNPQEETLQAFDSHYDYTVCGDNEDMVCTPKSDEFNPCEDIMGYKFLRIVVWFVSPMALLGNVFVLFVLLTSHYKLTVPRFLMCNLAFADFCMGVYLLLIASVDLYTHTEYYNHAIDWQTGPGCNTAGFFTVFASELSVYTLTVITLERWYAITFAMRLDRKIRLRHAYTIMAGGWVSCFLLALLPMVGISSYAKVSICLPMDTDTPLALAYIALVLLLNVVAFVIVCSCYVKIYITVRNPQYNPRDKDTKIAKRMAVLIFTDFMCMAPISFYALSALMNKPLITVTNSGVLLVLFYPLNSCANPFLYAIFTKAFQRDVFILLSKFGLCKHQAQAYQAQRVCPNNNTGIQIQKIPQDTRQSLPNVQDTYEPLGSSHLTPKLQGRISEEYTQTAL
Serum samples from 15 patients with elevated TSab levels were selected from the clinical chemistry laboratory. The TSab values, expressed as an index, [formula] 63:707 (1988)]ranged from 10-20 with an average of 13.8±3.3. Normal serum has an index of less than 1.3.
The bioassay described by Kasagi et al., supra, with modifications as previously noted above, was used. The immunoglobulins were precipitated from 2 ml of TSab-containing serum with 6 ml of polyethylene glycol 6,000 (Baker; Phillipsburg, N.J.), centrifuged at 3,000×g for 20 minutes, and resuspended in 4 ml of NaCl-free HBSS with 0.5 mM IBMX and 0.5% BSA. The plated cells were washed with NaCl-free HBSS and the crude immunoglobulin extract, mixed with various concentrations of β-subunit peptides, was added in duplicate to the wells (total volume 200 μl/well). The cells were incubated for 2 hours at 37° C. and 5% CO2. The samples were then removed from the cells and a portion diluted 1:50 in NaOAc buffer, pH 6.2. A 25 μl aliquot of this was then used in a cAMP RIA as described above. The basal cAMP levels were determined for each plate of cells in the absence of immunoglobulin extract and β-peptides. A maximal cAMP level was attained by stimulating the cells with the immunoglobulin extract only. The percent increase in cAMP levels above basal was calculated as: [formula] as previously described (see Morris et al., supra). The percent inhibition of cAMP production by the β-subunit peptides was calculated as described above for TSH-stimulated cells, substituting pmol cAMP crude immunoglobulin for pmol cAMP TSH.
Inhibition of TSab activity was tested by comparing the replicates of cAMP levels generated in the presence of peptide to those generated by TSab alone using Student's T test for unpaired samples. Mean inhibition by the various doses of synthetic peptide for the patient group was tested by comparison with maximum cAMP response within each patient sample using the T test for paired samples.

In experiment [1], `CC[C@H](C)[C@H](N)C(=O)N[C@@H](CCC(=O)O)C(=O)N[C@@H](CCCNC(=N)N)C(=O)N[C@@H](CCCNC(=N)N)C(=O)N[C@@H](CCC(=O)O)C(=O)N[C@@H](CS)C(=O)N[C@@H](C)C(=O)N[C@@H](Cc1ccc(O)cc1)C(=O)N[C@@H](CS)C(=O)N[C@@H](CC(C)C)C(=O)N[C@H](C(=O)N[C@H](C(=O)N[C@@H](CC(N)=O)C(=O)N[C@H](C(=O)N[C@H](C(N)=O)[C@@H](C)O)[C@@H](C)O)[C@@H](C)CC)[C@@H](C)O` [β11-25] (H-IERRECAYCLTINTT-NH2) registered an EC50 of 186 ± 28 µM. Also, in experiment [2], the EC50 was > 1000 µM and the “Inhibition of TSH binding to human thyroid membrane (in words)” value is “inactive”.
With `CC[C@H](C)[C@H](NC(=O)[C@H](CCC(=O)O)NC(=O)[C@@H](NC(=O)[C@@H](N)[C@@H](C)O)C(C)C)C(=O)N1CCC[C@H]1C(=O)NCC(=O)N[C@@H](CS)C(=O)N1CCC[C@H]1C(=O)N[C@@H](CC(C)C)C(=O)N[C@@H](Cc1c[nH]cn1)C(=O)N[C@H](C(=O)N[C@@H](C)C(=O)N1CCC[C@H]1C(=O)N[C@@H](Cc1ccc(O)cc1)C(=O)N[C@@H](Cc1ccccc1)C(N)=O)C(C)C` [β61-75] (H-TVEIPGCPLHVAPYF-NH2), the EC50 in experiment [1] and in experiment [2] was > 1000 µM in each case.
As for `CC(C)C[C@H](NC(=O)[C@H](C)NC(=O)[C@@H](NC(=O)[C@@H]1CCCN1C(=O)[C@H](Cc1ccc(O)cc1)NC(=O)[C@H](CO)NC(=O)[C@H](Cc1ccccc1)NC(=O)[C@H](Cc1ccc(O)cc1)NC(=O)[C@@H]1CCCN1C(=O)[C@H](C)NC(=O)[C@@H](N)C(C)C)C(C)C)C(=O)N[C@@H](CO)C(=O)N[C@@H](CS)C(=O)N[C@@H](CCCCN)C(=O)N[C@@H](CS)C(N)=O` [β71-85] (H-VAPYFSYPVALSCKC-NH2; N-terminus assumed), at FRTL5 cells, the “Serum samples in which TSab-stimulated cAMP was significantly inhibited (p<0.05) / samples tested” value is reported as 1/5 and the “Inhibition of TSab-stimulated cAMP generation (in words)” value is recorded as “significant inhibition only at the highest concentration”. Besides, on FRTL5 cells (listed as 71-85), the “Inhibition of TSab-stimulated cAMP generation (in words)” value is “effective only at the highest dose”. In addition, the “Inhibition of TSH binding to human thyroid membrane (in words)” value in experiment [2] is on record as “inhibit binding of TSH to human thyroid membrane”.
For the compound `CC[C@H](C)[C@H](NC(=O)[C@H](C)NC(=O)[C@H](CCC(=O)O)NC(=O)[C@H](Cc1c[nH]cn1)NC(=O)[C@@H](NC(=O)[C@H](CS)NC(=O)[C@H](CC(=O)O)NC(=O)[C@H](CO)NC(=O)[C@H](Cc1ccc(O)cc1)NC(=O)[C@@H](N)CC(=O)O)[C@@H](C)CC)C(=O)N[C@@H](CCCCN)C(=O)N[C@H](C(=O)N[C@@H](CC(N)=O)C(=O)N[C@@H](Cc1ccc(O)cc1)C(=O)N[C@@H](CS)C(N)=O)[C@@H](C)O` [β91-105] (H-DYSDCIHEAIKTNYC-NH2; N-terminus assumed), at FRTL5 cells, the “Serum samples in which TSab-stimulated cAMP was significantly inhibited (p<0.05) / samples tested” value was 1/12 and the “Inhibition of TSab-stimulated cAMP generation (in words)” value is given as “did not inhibit TSab activity”.
In the case of `CC[C@H](C)[C@H](NC(=O)[C@@H](N)[C@@H](C)O)C(=O)N[C@@H](CC(N)=O)C(=O)N[C@H](C(=O)N[C@H](C(=O)N[C@H](C(=O)N[C@@H](CS)C(=O)N[C@@H](C)C(=O)NCC(=O)N[C@@H](Cc1ccc(O)cc1)C(=O)N[C@@H](CS)C(=O)N[C@@H](CCSC)C(=O)N[C@H](C(=O)N[C@@H](CCCNC(=N)N)C(=O)N[C@@H](CC(=O)O)C(N)=O)[C@@H](C)O)[C@@H](C)CC)[C@@H](C)O)[C@@H](C)O` [β21-35] (H-TINTTICAGYCMTRD-NH2), the EC50 in experiment [1] and in experiment [2] was > 1000 µM in each case.
With `CC[C@H](C)[C@H](NC(=O)[C@H](Cc1ccccc1)NC(=O)[C@H](CC(=O)O)NC(=O)[C@H](CCCNC(=N)N)NC(=O)[C@H](Cc1ccc(O)cc1)NC(=O)[C@@H](NC(=O)[C@H](CS)NC(=O)[C@@H](N)C(C)C)[C@@H](C)O)C(=O)N[C@@H](Cc1ccc(O)cc1)C(=O)N[C@@H](CCCNC(=N)N)C(=O)N[C@H](C(=O)N[C@H](C(=O)N[C@@H](CCC(=O)O)C(=O)N[C@H](C(=O)N1CCC[C@H]1C(N)=O)[C@@H](C)CC)C(C)C)[C@@H](C)O` [β51-65] (H-VCTYRDFIYRTVEIP-NH2), the EC50 in experiment [1] and in experiment [2] was > 1000 µM throughout.
`CC[C@H](C)[C@H](NC(=O)[C@H](CC(=O)O)NC(=O)[C@H](CCCNC(=N)N)NC(=O)[C@@H](NC(=O)[C@H](CCSC)NC(=O)[C@@H](N)CS)[C@@H](C)O)C(=O)N[C@@H](CC(N)=O)C(=O)NCC(=O)N[C@@H](CCCCN)C(=O)N[C@@H](CC(C)C)C(=O)N[C@@H](Cc1ccccc1)C(=O)N[C@@H](CC(C)C)C(=O)N1CCC[C@H]1C(=O)N[C@@H](CCCCN)C(=O)N[C@@H](Cc1ccc(O)cc1)C(N)=O` [β31-45] (H-CMTRDINGKLFLPKY-NH2): the EC50 was 200 ± 36 µM in experiment [1] and 186 ± 25 µM in experiment [2].
Consider `CC(C)C[C@H](NC(=O)[C@H](C)NC(=O)[C@H](Cc1ccc(O)cc1)NC(=O)[C@H](CCCCN)NC(=O)[C@@H]1CCCN1C(=O)[C@H](CC(C)C)NC(=O)[C@@H](N)Cc1ccccc1)C(=O)N[C@@H](CO)C(=O)N[C@@H](CCC(N)=O)C(=O)N[C@@H](CC(=O)O)C(=O)N[C@H](C(=O)N[C@@H](CS)C(=O)N[C@H](C(=O)N[C@@H](Cc1ccc(O)cc1)C(=O)N[C@@H](CCCNC(=N)N)C(N)=O)[C@@H](C)O)C(C)C` [β41-55] (H-FLPKYALSQDVCTYR-NH2), for which the EC50 in experiment [1] came out at 216 ± 18 µM; in experiment [2], 242 ± 58 µM.
